Legend:
[1] = test system: oxygen consumption / mitochondrial respiration; assay: Seahorse XF Cell Mito Stress Test; format: cell-based, human
Text: In particular, MDA-MB-231/TGL and MCF7/TGL/PQ cells treated with carbon monoxide met their energetic needs at the same rate as untreated control cells. […] In particular, MDA-MB-231/TGL and MCF7/TGL/PQ cells treated with carbon monoxide stimulated their mitochondrial respiratory chains at the same rate as untreated control cells.
The heme group confers functionality to multiple proteins, which can include oxygen carrying, oxygen reduction, electron transfer, and other processes. To determine whether the decrease of heme levels impacts levels of oxygen-utilizing hemoproteins and therefore reduces oxygen consumption, oxygen consumption rates (OCR) was measured. However, lower OCR after 16 hours in 250 ppm CO was not detected using Seahorse XF Cell Mito Stress Tests in MCF7 and MDA-MB-231 (data not shown).

[2] = test system: non-malignant BJ fibroblasts; assay: in vitro transwell migration assay; format: cell-based; settings: 250 ppm CO
Description: Migration of different cancer cells under control air or 250 ppm CO treatment with or without supplement of 30 µM hemin was determined using in vitro transwell migration chamber with a serum gradient. Indicated cell lines were seeded into the transwell inserts. 16 hours later, cells on the top of the upper chambers were removed, and cells on the bottom surface of the transwell inserts were fixed, stained with crystal violet, and counted from eight randomly picked fields in three independent experiments. Error bars represent SEM. *: P < 0.05, two-sided t-test. Scale bar, 100 µm. […] Cells were seeded in the upper chamber of 8-µm porous polycarbonate membranes with DMEM containing 0% or 1% FBS, 0.2 mM L-glutamine, 1% penicillin/streptomycin. The lower chambers were filled with DMEM containing 10% or 20% FBS, 0.2 mM L-glutamine, and 1% penicillin/streptomycin (please see Table 1).
6.5 mm Transwell with 8.0 µm Pore Polycarbonate Membrane Insert (Corning, NY, Cat. No. 3422) was used for the cell migration assay (FIG. 1J). After 16 hours of incubation, cells migrated to the opposite side of the upper chambers were fixed with 4% paraformaldehyde, stained with 0.2% crystal violet for 30 min and counted in five fields under × 20 magnification. In parallel, cells were seeded on 24-well plates for proliferation assay. […] The optical density was measured at 595 nm (OD595). […]

[3] = test system: Bach 1; assay: Western blot analysis; format: cell-based, human; settings: two breast cancer cell lines (MCF7, MDA-MB-231); 250 ppm CO
Description: (§1) 1.5 × 10^6 cells were seeded in 6-cm cell culture plates with DMEM containing 10% FBS, 0.2 mM L-glutamine and 1% penicillin/streptomycin. Additionally, MCF7/TGL/pQ was cultured in media containing 0.5 µgml^-1 puromycin and 25 mM HEPES. After 16 hours of incubation, cells were lysed with RIPA buffer (0.1% SDS, 1% TritonX-100, 0.5% sodium deoxycholate, 25 mM Tris pH 8.0, 150 mM NaCl, and 1 mM EDTA) supplemented with a protease inhibitor mixture and PhosSTOP (Roche, Basel, Switzerland). Proteins were quantified with Bradford assay (Bio-Rad, Hercules CA). Equal amounts of proteins were separated with SDS-PAGE and transferred to nitrocellulose membranes. […] Protein bands were visualized by enhanced chemical luminescence (Pierce, Dallas, TX).
(§2) To investigate how CO reduces heme levels, whether CO decreased the transportation of heme into the cytosol was examined. […] Likewise, changes in protein levels of Bach 1 (a physiological repressor of HO-1 and a pro-metastatic transcription factor, whose degradation is reported to be mediated by heme in Nrf2-mutated lung cancer) was not detected (FIG. 4E). […]

[4] = test system: HO-1; assay: Western blot analysis; format: cell-based, human; settings: two breast cancer cell lines (MCF7, MDA-MB-231); 250 ppm CO
Description: as §1, §2

[5] = test system: HiF1α; assay: Western blot analysis; format: cell-based, human; settings: MCF7/TGL and MDA-MB-231/TGL cells; 250 ppm CO for 16 hours vs standard incubator
Description: as §1
To investigate whether 250 ppm CO induces hypoxia, HiF1α protein levels in low-dose CO-treated MCF7/TGL and MDA-MB-231/TGL cells were examined. […] To assess the intracellular heme levels affected by low-dose CO treatment, oxidized heme levels in the form of hemin (Fe^3+ state) were measured because free heme (Fe^2+ state) is readily oxidized and cannot be measured. […]

[6] = MDA-MB-231 and MCF7 cells, low dose carbon monoxide

For `[C-]#[O+]` [CO, Carbon monoxide], the “lower oxygen consumption rates (OCR)” value ([1]; MCF7 and MDA-MB-231, after 16 hours in 250 ppm CO, data not shown) was “not detected”, the “mitochondrial spare respiratory capacity” value ([1]; MDA-MB-231 and MCF7 cells, carbon monoxide treatment) was “improved” and the “mitochondrial ATP production” value [1, 6] was “did not affect”. For the same molecule, the “stress-induced mitochondrial maximum respiration” value [1, 6] was “did not affect”, the migration [2] was “only slightly reduced” and the “changes in protein levels of Bach 1” value [3] was “not detected”. For the same molecule, the “increase of HO-1 expression” value [4] was “not detected” and the HiF1α protein levels [5] was “not changed”.

— patent US20230346831A1, “METHODS FOR TREATING […] USING LOW DOSE CARBON MONOXIDE” (priority 2020, published 2023)
